We go through 32 compounds from ChEMBL document CHEMBL5614460, “Discovery of novel substituted pyridine carboxamide derivatives as potent allosteric SHP2 inhibitors” (Eur J Med Chem, 2024).

This assay has as its target T1, Tyrosine-protein phosphatase non-receptor type 11 (Homo sapiens, UniProt Q06124).
T1 sequence (Q06124 whole entry): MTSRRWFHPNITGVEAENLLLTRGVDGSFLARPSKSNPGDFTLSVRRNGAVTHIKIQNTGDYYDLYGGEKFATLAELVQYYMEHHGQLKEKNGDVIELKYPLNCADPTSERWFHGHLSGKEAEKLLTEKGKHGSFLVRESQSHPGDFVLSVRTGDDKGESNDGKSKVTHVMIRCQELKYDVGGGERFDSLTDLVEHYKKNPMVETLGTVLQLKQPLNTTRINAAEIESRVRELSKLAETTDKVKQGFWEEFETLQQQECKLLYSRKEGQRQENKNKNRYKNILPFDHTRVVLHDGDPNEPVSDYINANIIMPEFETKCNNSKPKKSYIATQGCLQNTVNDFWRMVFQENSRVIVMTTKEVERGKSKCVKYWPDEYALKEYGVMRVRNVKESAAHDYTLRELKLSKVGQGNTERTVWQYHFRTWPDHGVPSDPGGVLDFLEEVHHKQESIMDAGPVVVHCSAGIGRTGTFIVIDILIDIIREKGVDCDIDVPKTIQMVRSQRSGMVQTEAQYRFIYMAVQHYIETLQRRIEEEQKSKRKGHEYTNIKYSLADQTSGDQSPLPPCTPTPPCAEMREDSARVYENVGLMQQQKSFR
Put plainly: Allosteric inhibition of N-terminal His-tagged human recombinant SHP2 extracted from Escherichia coli using DiFMUP as substrate preincubated with compound for 60 mins followed by substrate addition and measured after 30 mins by fluorescence based microplate reader analysis.

Usually IC50 stands for the concentration that inhibits the measured activity by half.

Take `CC1(N)CCN(c2cnc(Sc3cccc(NC(=O)Cc4ccccc4)c3Cl)cn2)CC1`: the IC50 came out at 49.8 nM.

On to `N[C@@H]1c2ccccc2CC12CCN(c1cnc(Sc3cccc(NC(=O)c4ncccc4Cl)c3Cl)cn1)CC2`, for which the IC50 is 1.08 nM.

For the compound `CC1(N)CCN(c2cnc(Sc3cccc(NC(=O)c4ncccn4)c3Cl)cn2)CC1`, the IC50 came to 30.1 nM.

Regarding `CC1(N)CCN(c2cnc(Sc3cccc(N)c3Cl)cn2)CC1`, the IC50 was found to be 36.2 nM.

Regarding `CC1(N)CCN(c2cnc(Sc3cccc(NC(=O)c4nccs4)c3Cl)cn2)CC1`, the IC50 turned out to be 51.9 nM.

For `CC1(N)CCN(c2cnc(Sc3ccc(NC(=O)c4ccccc4)cc3Cl)cn2)CC1`, the IC50 is 296 nM.

With `CC1(N)CCN(c2cnc(Sc3cccc(NC(=O)c4cnccc4O)c3Cl)cn2)CC1`, the IC50 stood at 6.4 nM.

As for `C[C@@H]1OCC2(CCN(c3cnc(Sc4cccc(NC(=O)c5ncccc5O)c4Cl)cn3)CC2)[C@@H]1N`, the IC50 was 0.59 nM.

Consider `CC1(N)CCN(c2cnc(Sc3cccc(NC(=O)c4ncccc4Br)c3Cl)cn2)CC1`, for which the IC50 stood at 52.8 nM.

`Cc1cccnc1C(=O)Nc1cccc(Sc2cnc(N3CCC(C)(N)CC3)cn2)c1Cl`: the half-inhibitory concentration (IC50) came out at 89.1 nM.

For the compound `CC1(N)CCN(c2cnc(Sc3cccc(NC(=O)c4ccccn4)c3Cl)cn2)CC1`, the IC50 was 29.4 nM.

Regarding `CC1(N)CCN(c2cnc(Sc3cccc(NC(=O)c4ccco4)c3Cl)cn2)CC1`, the IC50 is 113 nM.

For the compound `CC1(N)CCN(c2cnc(Sc3cccc(NC(=O)c4ccncc4Cl)c3Cl)cn2)CC1`, the IC50 was found to be 147 nM.

In the case of `CC1(N)CCN(c2cnc(Sc3cccc(NC(=O)c4cnccn4)c3Cl)cn2)CC1`, the half-inhibitory concentration (IC50) was 77 nM.

`CC1(N)CCN(c2cnc(Sc3cccc(NC(=O)c4ccccc4)c3Cl)cn2)CC1`: the IC50 worked out at 67.8 nM.

Consider `CC1(N)CCN(c2cnc(Sc3cccc(NC(=O)c4cc(Cl)ccn4)c3Cl)cn2)CC1`, for which the IC50 was determined as 219 nM.

With `N[C@@H]1c2ccccc2CC12CCN(c1cnc(Sc3cccc(NC(=O)c4cccnc4O)c3Cl)cn1)CC2`, the IC50 was determined as 1.87 nM.

Turning to `CC1(N)CCN(c2cnc(Sc3cccc(NC(=O)c4ncccc4C(F)(F)F)c3Cl)cn2)CC1`, the IC50 is 88.6 nM.

Turning to `CC1(N)CCN(c2cnc(Sc3cccc(NC(=O)c4cccnc4O)c3Cl)cn2)CC1`, the IC50 was found to be 11.3 nM.

Consider `CC1(N)CCN(c2cnc(Sc3cccc(NC(=O)c4ncccc4F)c3Cl)cn2)CC1`, for which the IC50 was 32.3 nM.

Turning to `CC1(N)CCN(c2cnc(Sc3cccc(NC(=O)c4cccc5ccccc45)c3Cl)cn2)CC1`, the IC50 was determined as 332 nM.

For `CC1(N)CCN(c2cnc(Sc3cccc(NC(=O)c4cccnc4Cl)c3Cl)cn2)CC1`, the IC50 is 365 nM.

For the compound `CC1(N)CCN(c2cnc(Sc3cccc(NC(=O)/C=C/c4ccccc4)c3Cl)cn2)CC1`, the IC50 is 39.6 nM.

In the case of `N[C@@H]1c2ccccc2CC12CCN(c1cnc(Sc3cccc(NC(=O)c4ncccc4O)c3Cl)cn1)CC2`, the IC50 amounted to 0.6 nM.

In the case of `C[C@@H]1OCC2(CCN(c3cnc(Sc4cccc(NC(=O)c5ncccc5Cl)c4Cl)cn3)CC2)[C@@H]1N`, the IC50 came to 1.03 nM.

Turning to `CC1(N)CCN(c2cnc(Sc3cccc(NC(=O)c4cccs4)c3Cl)cn2)CC1`, the IC50 stood at 119 nM.

For `CC1(N)CCN(c2cnc(Sc3cccc(NC(=O)c4ncccc4Cl)c3Cl)cn2)CC1`, the IC50 worked out at 1.7 nM.

On to `CC1(N)CCN(c2cnc(Sc3cccc(NC(=O)c4cccc(Cl)n4)c3Cl)cn2)CC1`, for which the IC50 came to 175 nM.

On to `CC1(N)CCN(c2cnc(Sc3cccc(NC(=O)c4ncccc4O)c3Cl)cn2)CC1`, for which the IC50 came to 6.6 nM.

As for `CC1(N)CCN(c2cnc(Sc3cccc(NC(=O)c4ccc(Cl)cn4)c3Cl)cn2)CC1`, the IC50 was determined as 218 nM.

On to `CC1(N)CCN(c2cnc(Sc3cccc(NC(=O)C4CCCCC4)c3Cl)cn2)CC1`, for which the IC50 stood at 174 nM.

In the case of `CC1(N)CCN(c2cnc(Sc3cccc(NC(=O)c4cnccc4Cl)c3Cl)cn2)CC1`, the concentration for half-maximal inhibition (IC50) was determined as 128 nM.
